In paper PMC2993481, “Rat cytochromes P450 oxidize 3-aminobenzanthrone, a human metabolite of the carcinogenic environmental pollutant 3-nitrobenzanthrone” (Interdisciplinary Toxicology, 2010):
Each block holds one compound with its values, some of them ahead of it.

Experiments:
[1] = design: method as in Seidel et al., [2002]; conditions: smoking and nonsmoking salt mining workers exposed to diesel emissions; ref Seidel et al., [2002]; cited from earlier work
[2] = tested on: rat hepatic CYP enzymes in microsomes; assay: Oxidation of 3-ABA by rat hepatic microsomes, metabolites separated by HPLC; assay type: in vitro ADME; conditions: NADPH, 37 °C
Procedure: (§1) The study was conducted in accordance with the Regulations for the Care and Use of Laboratory Animals (311/1997, Ministry of Agriculture, Czech Republic), which complies with Declaration of Helsinki. Microsomes from livers of ten male untreated Wistar rats and those of rats pretreated with β-NF (Sigma, UK) and PB were prepared by the procedure described previously (Stiborová et al., [2002]). Rat liver microsomes contained 0.6 nmol CYP/mg protein. Hepatic microsomes of rats treated with β-NF and PB contained 1.3 and 1.5 nmol CYP/mg proteins, respectively.
Incubation mixtures, in a final volume of 500 µl, consisted of 100 mM potassium phosphate buffer (pH 7.4), 10 mM NADPH, 0.5 mg of microsomal protein and 5–50 µM 3-ABA (dissolved in dimethyl sulfoxide, DMSO). The reaction was initiated by adding 3-ABA. Incubations with rat microsomes were carried out at 37 °C for 5–180 minutes. Control incubations were carried out either (1) without the enzymatic system (microsomes) or (2) with microsomes and 3-ABA, but without NADPH. Then, 5 µl of 1 mM phenacetine in methanol was added as an internal standard and 3-ABA and its metabolites were extracted twice with ethyl acetate (2 × 1.5 ml). The extracts were evaporated to dryness; residues were dissolved in 30 µl of methanol and subjected to reverse-phase (RP)-HPLC to evaluate the amounts of residual 3-ABA and its metabolites. […]

Salmonella = tested on: Salmonella; design: method as in Enya et al., [1997]; Seidel et al., [2002]; Arlt, [2005]; conditions: ref Enya et al., [1997]; Seidel et al., [2002]; Arlt, [2005]; cited from earlier work
rats = tested on: rats; design: method as in Seidel et al., [2002]; Arlt, [2005]; Nagy et al., [2005]; conditions: intratracheal instillation, ref Seidel et al., [2002], Arlt, [2005], Nagy et al.; cited from earlier work
[3] = tested on: Control rat hepatic microsomes (CYPs); assay: Inhibition of 3-ABA oxidation by CYPs in hepatic microsomes of untreated (control) rats; assay type: biochemical; conditions: hepatic microsomes from control rats; inhibitor 0.01–0.1 mM, 20 min, 37 °C
Procedure: The study was conducted in accordance with the Regulations for the Care and Use of Laboratory Animals (311/1997, Ministry of Agriculture, Czech Republic), which complies with Declaration of Helsinki.

[4] = tested on: Hepatic microsomes from rats pretreated with Phenobarbital (CYP2B); assay: Inhibition of 3-ABA oxidation by CYPs in hepatic microsomes of phenobarbital-pretreated rats; assay type: biochemical, rat; conditions: inhibitor 0.01–0.1 mM, 20 min, 37 °C
Procedure: as §1
Incubation mixtures, in a final volume of 500 µl, consisted of 100 mM potassium phosphate buffer (pH 7.4), 10 mM NADPH, 0.5 mg of microsomal protein and 5–50 µM 3-ABA (dissolved in dimethyl sulfoxide, DMSO). The reaction was initiated by adding 3-ABA. Incubations with rat microsomes were carried out at 37 °C for 5–180 minutes. […]
The following chemicals were used to inhibit 3-ABA oxidation in the presence of rat hepatic microsomes: α-naphthoflavone (α-NF), which inhibits CYP1A1 and 1A2, furafylline, which inhibits CYP1A2, diamantane, an inhibitor of CYP2B, sulfophenazole, which inhibits CYP2C and diethyldithiocarbamate, which inhibits CYP2E1 (Rendic and DiCarlo, [1997]). […] After the incubation, 3-ABA and its metabolites were extracted and analyzed by HPLC as described above.

CYP1A1/2 = assay: Inhibition of 3-ABA oxidation by CYPs in hepatic microsomes of β-naphthoflavone-pretreated rats; assay type: biochemical; conditions: male, Wistar, rat, liver microsomes from β-naphthoflavone-pretreated rats, pH 7.4, probe 3-ABA (5-50 µM), hepatic microsomes from rats pretreated with β-naphtoflavone (CYP1A1/2), inhibitor 0.01–0.1 mM, 37 °C
Procedure: The HPLC was performed with a reversed phase column (Nucleosil 100-5 C18, Macherey-Nagel, Duren, Germany, 25 cm×4.6 mm, 5 µm) proceeded by a C-18 guard column, using isocratic elution conditions of 70% methanol in distilled water with a flow rate of 0.6 ml/min.
Inhibitors were dissolved in 7.5 µl of methanol or water (in the case of diethyldithiocarbamate), to yield final concentrations of 0.01–0.1 mM in the incubation mixtures. […] After the incubation, 3-ABA and its metabolites were extracted and analyzed by HPLC as described above.

Structure (SMILES): Nc1ccc2ccc3cccc4ccc1c2c34 [1-aminopyrene]
Concentration detected in urine [1]: 2–200 ng/24 h urine

Structure (SMILES): Nc1ccc2c3c(cccc13)C(=O)c1ccccc1-2 [3-ABA, 3-Aminobenzanthrone]
Metabolites formed by oxidation in rat hepatic microsomes [2]: up to three metabolites | Concentration detected in urine [1]: 1–143 ng/24 h urine

Structure (SMILES): O=C1c2ccccc2-c2ccc([N+](=O)[O-])c3cccc1c23 [3-NBA, 3-nitro-7H-benz[de]anthracen-7-one]
Mutagenic potency in the Ames Salmonella assay (Salmonella): extremely high mutagenic potency | Carcinogenicity in rats (rats): carcinogenic in rats, causing lung tumours

Structure (SMILES): C1C2CC3C4CC5CC(C14)C(C2)C3C5 [Diamantane, diamantane]
IC50 [4]: 0.9 µM

Now from value to compound:

IC50 [3]: 96.8 µM
Structure (SMILES): CCN(CC)C(=S)S [DDTC, diethyldithiocarbamate]

IC50 at 20 min (CYP1A1/2): 16.6 µM
Structure (SMILES): Cc1nc2c([nH]1)c(=O)n(C)c(=O)n2Cc1ccco1 [Furafylline, furafylline]

IC50 at 20 min (CYP1A1/2): 10.9 µM
Structure (SMILES): O=c1cc(-c2ccccc2)oc2c1ccc1ccccc12 [α-naphtoflavone, α-naphthoflavone]
